Source: patent US12161694B2, “Methods and compositions for regulating innate lymphoid cell inflammatory responses” (The Broad Institute, Inc., priority 2017, dated 2024)
Entries after “also recorded” stand apart in the source; their conditions may differ. Where no end group is shown, it is not given here.

System: eosinophils
Assay: Eosinophils in lung parenchyma and BALF after in vivo treatment (flow cytometry)
Parameters: species or system mouse
Procedure: Mice and in vivo ILC activation. C57Bl/6J mice were purchased from the Jackson Laboratory. Nmur1-LacZ reporter mice with a LacZ cassette knocked into the Nmur1 locus were rederived from Nmur1^tm1.1(KOMP)Vleg sperm obtained from the trans-NIH Knock-Out Mouse Project (KOMP) Repository. Mice were housed under specific-pathogen-free conditions. For experiments, mice were matched for sex and age, and most mice were 6-10 weeks old. […] The total administered volume was 20 μl for all conditions. Mice were randomly assigned to treatment groups after matching for sex and age. […] Mice were treated intranasally with 10 μg HDM on day 0, 7, 8, and 9, prior to sacrifice on day 10. All experiments were conducted in accordance with animal protocols approved by the Harvard Medical Area Standing Committee on Animals or BWH IACUC.
Flow cytometry. […] Cells were stained on ice with antibodies for surface molecules and the live/dead marker 7AAD and analyzed on a LSRFortessa (BD Biosciences). […]
Lung analysis. […] BALF was centrifuged, and the supernatant was used for analyzing cytokine levels and the cell pellet was resuspended, counted, and used for flow cytometry. […] Where indicated, cells were diluted in 10% Trypan Blue and viable cells counted using a hemocytometer. […]

Substance: Neuromedin U (FRVDEEFQSPFASQSRGYFLFRPRN-NH2; listed as Homo sapiens) [NMU, neuropeptide ligand of Nmur1 (US Biological)]
- eosinophils in BALF (intranasal daily for 3 days (500 ng IL-25, 20 μg NMU)): only a mild increase; also recorded: small increase
- eosinophils in lung parenchyma (intranasal daily for 3 days (500 ng IL-25, 20 μg NMU; FIG. 11: 250 ng IL-33, 10 μg NMU)): did not increase
